Read-outs that look alike come from different tables or passages of the source.
Legend:
Influenza virus B/Lee/40 = assay: Cytopathic effect reduction, influenza B Lee in MDCK cells, MTT; format: cell-based; settings: for Selectivity index FluB Lee: CC50/EC50; for EC50: read-out: Anti-Flu activity EC50 FluB Lee
MERS-CoV = assay: microbe, parasite or virus in culture; format: cell-based, MERS virus (MERS-CoV/KOR/KNIH/002_05_2015); settings: Middle East respiratory syndrome-related coronavirus, Huh-7, 72 h, read-out: EC50 MERS-CoV
DENV = assay: Reduction in viral infection, dengue virus in Vero cells, immunofluorescence (4G2 antibody); format: cell-based, Dengue virus New Guinea C (NGC); settings: 72 h, read-out: EC50 DENV
ZIKV = assay: Reduction in viral infection, zika virus in Vero cells, immunofluorescence (4G2 antibody); format: cell-based, Zikavirus (MR766); settings: 72 h, day 3 after infection
CHIKV = assay: Cytopathic effect reduction, Chikungunya virus in Vero cells, MTT; format: cell-based; settings: 72 h, read-out: EC50 CHIKV
in vitro [1] = settings: dog
in vitro [2] = settings: human
[3] = Cytotoxicity (CC50) in Vero cells; settings: African green monkey
MDCK cells = settings: read-out: Toxicity CC50, day 3, MTT
hCoV (229E) = assay: microbe, parasite or virus in culture; format: cell-based, Human coronavirus hCoV 229E; settings: MRC5, 72 h; MRC-5 cells, day 3 after infection; read-out: EC50 hCoV (229E)
FIPV = assay: Cytopathic effect reduction, FIPV in CRFK cells, MTT; format: cell-based, feline infectious peritonitis virus (FIPV); settings: Alphacoronavirus 1, 72 h; CRFK cells, day 3 after infection; read-out: EC50 FIPV
[4] = tested on: Madin-Darby Canine Kidney (MDCK) cells; settings: 100 μM for 3 days; cited from earlier work
in vitro [5] = settings: human; remark: listed apart in the source
in vitro [6] = settings: cat

SMILES	Selectivity index FluB Lee (Influenza virus B/Lee/40)	EC50 (Influenza virus B/Lee/40; MDCK, 72 h) [µM]	EC50 (MERS-CoV) [µM]	EC50 (DENV) [µM]	EC50 (ZIKV) [µM]	EC50 (CHIKV) [µM]	CC50 at 3 days (in vitro [1]) [µM]	CC50 at 3 days (in vitro [2]) [µM]	CC50 at 3 days ([3]; CC50 (CHIKV), Vero cells, CHIKV test, MTT) [µM]	CC50 at 3 days ([3]; CC50 (DENV), Vero cells, DENV test) [µM]	CC50 at 3 days ([3]; CC50, Vero cells, ZIKV test) [µM]	EC50 (Influenza virus B/Lee/40) [µM]	CC50 (MDCK cells) [µM]	EC50 (hCoV (229E)) [µM]	EC50 (FIPV) [µM]	cell death [4]	CC50 (in vitro [1]) [µM]	CC50 (in vitro [5]) [µM]	CC50 (in vitro [6]) [µM]
N#Cc1ccc(C(=O)Nc2ccn(C3O[C@H](CO)[C@@H](O)[C@H]3F)c(=O)n2)nc1 (stereo in doubt) [Example 37, 5-cyano-N-(1-((2S,3R,4R,5R)-3-fluoro-4-hydroxy-5-(hydroxymethyl)tetrahydrofuran-2-yl)-2-oxo-1,2-dihydropyrimidin-4-yl)picolinamide]	>6.6	15.1	> 100	> 100	> 100	51.7	> 100	> 100	> 100	> 100	> 100								
Nc1ccn([C@@H]2O[C@H](CO)[C@@H](O)[C@H]2F)c(=O)n1 [2′-FdC, reference compound]												5.2	> 100						
Nc1ccn([C@@H]2O[C@H](CO)[C@@H](O)C2(F)F)c(=O)n1 [Gemcitabine, reference compound]	185.2	1.3	1.1					> 100						0.44	21	about 50%	241	> 100	92
